Assay results: patent publication US12479847B2 (DANA-FARBER CANCER INSTITUTE, INC., priority 2019, dated 2025)
Where two headings read alike, the source gives them in different places.

Assays:
Experiment in all cases: KINOMEscan (ScanMAX) kinase profiling
Type in all cases: binding
panel of 468 kinases [1] = target: T1, panel of 468 kinases (Homo sapiens, UniProt P00519, H396P); details: 1 μM, read-out: % control
T1 construct: purchased KINOMEscan (ScanMAX) service

panel of 468 kinases [2] = target: T2, panel of 468 kinases (Homo sapiens, UniProt P42336, Q546K); details: PIK3CA(Q546K); 1 μM; read-out: % control
T2 construct: purchased KINOMEscan (ScanMAX) service
T2 sequence (P42336 whole entry Q546K): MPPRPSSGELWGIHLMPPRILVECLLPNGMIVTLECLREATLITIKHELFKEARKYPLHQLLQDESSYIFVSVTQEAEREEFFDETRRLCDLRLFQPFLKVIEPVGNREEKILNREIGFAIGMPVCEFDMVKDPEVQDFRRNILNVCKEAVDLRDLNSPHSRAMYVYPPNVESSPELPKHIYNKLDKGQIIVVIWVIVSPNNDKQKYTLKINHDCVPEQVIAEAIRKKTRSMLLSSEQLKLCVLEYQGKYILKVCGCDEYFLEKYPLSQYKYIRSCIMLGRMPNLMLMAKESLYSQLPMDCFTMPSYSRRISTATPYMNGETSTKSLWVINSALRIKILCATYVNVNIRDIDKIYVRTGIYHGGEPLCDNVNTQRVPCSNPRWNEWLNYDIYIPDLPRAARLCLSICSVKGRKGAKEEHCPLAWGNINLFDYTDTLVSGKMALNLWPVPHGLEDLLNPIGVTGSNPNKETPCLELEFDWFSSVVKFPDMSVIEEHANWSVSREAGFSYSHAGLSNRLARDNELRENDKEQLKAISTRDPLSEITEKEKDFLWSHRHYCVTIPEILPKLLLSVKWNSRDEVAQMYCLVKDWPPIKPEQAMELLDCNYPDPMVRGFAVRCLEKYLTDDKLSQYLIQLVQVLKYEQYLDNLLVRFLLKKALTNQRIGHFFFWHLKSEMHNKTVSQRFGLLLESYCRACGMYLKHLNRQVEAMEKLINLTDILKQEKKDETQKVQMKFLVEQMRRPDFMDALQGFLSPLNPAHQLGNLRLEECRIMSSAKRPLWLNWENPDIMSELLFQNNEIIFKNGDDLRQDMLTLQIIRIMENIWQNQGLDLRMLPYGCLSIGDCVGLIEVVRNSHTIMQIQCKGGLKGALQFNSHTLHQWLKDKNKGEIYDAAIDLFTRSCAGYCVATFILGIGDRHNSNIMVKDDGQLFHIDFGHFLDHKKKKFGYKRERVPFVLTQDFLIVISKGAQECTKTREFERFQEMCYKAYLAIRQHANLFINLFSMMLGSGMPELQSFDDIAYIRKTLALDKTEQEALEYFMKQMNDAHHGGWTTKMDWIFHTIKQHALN

panel of 468 kinases [3] = target: T3, panel of 468 kinases (Homo sapiens, UniProt Q08881); details: ITK; 1 μM; read-out: % control
T3 construct: purchased KINOMEscan (ScanMAX) service
T3 sequence (Q08881 1-620): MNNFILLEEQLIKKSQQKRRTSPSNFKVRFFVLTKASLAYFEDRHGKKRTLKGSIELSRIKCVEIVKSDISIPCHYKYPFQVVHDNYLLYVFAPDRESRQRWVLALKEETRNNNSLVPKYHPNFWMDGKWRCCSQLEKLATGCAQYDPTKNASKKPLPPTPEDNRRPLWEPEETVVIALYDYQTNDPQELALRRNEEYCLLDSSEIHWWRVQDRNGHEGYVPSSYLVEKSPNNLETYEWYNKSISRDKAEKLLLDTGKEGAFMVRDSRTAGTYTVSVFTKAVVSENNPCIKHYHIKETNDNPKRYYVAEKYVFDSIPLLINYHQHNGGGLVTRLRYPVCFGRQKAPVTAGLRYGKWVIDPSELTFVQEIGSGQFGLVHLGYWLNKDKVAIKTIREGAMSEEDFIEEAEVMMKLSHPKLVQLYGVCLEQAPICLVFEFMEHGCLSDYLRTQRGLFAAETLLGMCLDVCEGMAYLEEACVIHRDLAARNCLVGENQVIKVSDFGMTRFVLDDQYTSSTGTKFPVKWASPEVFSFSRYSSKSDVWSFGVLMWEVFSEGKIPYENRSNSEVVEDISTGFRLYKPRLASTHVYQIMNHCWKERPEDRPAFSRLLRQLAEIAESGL

panel of 468 kinases [4] = target: T4, panel of 468 kinases (Homo sapiens, UniProt Q8IYT8); details: ULK2; 1 μM; read-out: % control
T4 construct: purchased KINOMEscan (ScanMAX) service
T4 sequence (Q8IYT8 1-1036): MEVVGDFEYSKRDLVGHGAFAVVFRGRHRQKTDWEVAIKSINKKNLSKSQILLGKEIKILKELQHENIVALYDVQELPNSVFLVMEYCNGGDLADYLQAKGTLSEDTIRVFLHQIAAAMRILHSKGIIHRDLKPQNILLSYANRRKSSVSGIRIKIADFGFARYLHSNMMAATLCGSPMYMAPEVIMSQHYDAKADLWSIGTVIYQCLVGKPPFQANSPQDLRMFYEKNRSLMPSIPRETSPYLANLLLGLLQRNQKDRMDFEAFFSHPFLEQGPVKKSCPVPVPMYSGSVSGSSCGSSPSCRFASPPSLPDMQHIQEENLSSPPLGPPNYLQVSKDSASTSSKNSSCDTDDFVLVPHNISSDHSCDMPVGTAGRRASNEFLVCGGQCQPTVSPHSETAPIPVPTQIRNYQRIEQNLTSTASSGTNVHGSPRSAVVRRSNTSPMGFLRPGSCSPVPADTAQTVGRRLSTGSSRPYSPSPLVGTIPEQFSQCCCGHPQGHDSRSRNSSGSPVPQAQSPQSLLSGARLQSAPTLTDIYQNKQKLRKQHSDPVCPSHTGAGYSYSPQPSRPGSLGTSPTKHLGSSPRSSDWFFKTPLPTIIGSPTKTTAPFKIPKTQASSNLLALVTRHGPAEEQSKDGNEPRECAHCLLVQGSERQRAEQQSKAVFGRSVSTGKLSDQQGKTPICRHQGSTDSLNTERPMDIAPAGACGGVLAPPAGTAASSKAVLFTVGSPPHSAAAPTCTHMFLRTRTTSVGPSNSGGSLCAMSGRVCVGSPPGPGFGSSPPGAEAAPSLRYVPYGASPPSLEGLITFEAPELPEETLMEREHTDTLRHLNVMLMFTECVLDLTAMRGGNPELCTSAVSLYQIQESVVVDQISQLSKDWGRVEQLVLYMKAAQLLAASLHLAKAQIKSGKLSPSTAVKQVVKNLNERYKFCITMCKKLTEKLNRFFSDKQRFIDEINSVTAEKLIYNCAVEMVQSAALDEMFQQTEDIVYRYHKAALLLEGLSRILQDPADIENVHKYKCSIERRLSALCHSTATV

panel of 468 kinases [5] = target: T5, panel of 468 kinases (Homo sapiens, UniProt Q9Y2U5); details: MAP3K2; 1 μM; read-out: % control
T5 construct: purchased KINOMEscan (ScanMAX) service
T5 sequence (Q9Y2U5 1-619): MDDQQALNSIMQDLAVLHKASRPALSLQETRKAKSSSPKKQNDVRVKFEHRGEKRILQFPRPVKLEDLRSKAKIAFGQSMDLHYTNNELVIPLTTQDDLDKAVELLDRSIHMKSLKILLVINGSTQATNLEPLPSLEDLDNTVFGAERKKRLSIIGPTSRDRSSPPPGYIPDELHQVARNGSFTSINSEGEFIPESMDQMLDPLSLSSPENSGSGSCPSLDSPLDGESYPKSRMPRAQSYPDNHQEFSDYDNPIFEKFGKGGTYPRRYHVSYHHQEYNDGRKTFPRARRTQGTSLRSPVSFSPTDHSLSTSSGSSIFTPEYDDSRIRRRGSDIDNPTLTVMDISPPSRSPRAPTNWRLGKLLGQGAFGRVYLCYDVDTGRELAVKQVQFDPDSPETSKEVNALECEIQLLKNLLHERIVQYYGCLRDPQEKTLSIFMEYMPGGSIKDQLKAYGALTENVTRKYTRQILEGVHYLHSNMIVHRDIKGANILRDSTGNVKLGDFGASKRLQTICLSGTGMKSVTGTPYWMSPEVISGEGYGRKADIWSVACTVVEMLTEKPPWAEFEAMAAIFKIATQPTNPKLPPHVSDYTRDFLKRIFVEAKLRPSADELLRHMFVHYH

| SMILES | remaining binding at 1 µM (panel of 468 kinases [1]; ABL1(H396P)-nonphosphorylated) | remaining binding at 1 µM (panel of 468 kinases [1]; ABL1(H396P)-phosphorylated) | remaining binding at 1 µM (panel of 468 kinases [2]) | remaining binding at 1 µM (panel of 468 kinases [3]) | remaining binding at 1 µM (panel of 468 kinases [4]) | remaining binding at 1 µM (panel of 468 kinases [5]) |
| --- | --- | --- | --- | --- | --- | --- |
| CNc1nc(Nc2ccc(C(=O)N3CCC(N4CCOCC4)CC3)c3c2OCO3)nc2[nH]cc(Cl)c12 [Compound 75, (7-((5-chloro-4-(methylamino)-7H-pyrrolo[2,3-d]pyrimidin-2-yl)amino)benzo[d][1,3]dioxol-4-yl)(4-morpholinopiperidin-1-yl)methanone] | 99% | 82% | 65% | 100% | 79% | 15% |
| CNc1nc(Nc2ccc(S(=O)(=O)N3CCC(N4CCOCC4)CC3)cc2OC)nc2[nH]cc(Cl)c12 [Compound 12, 5-chloro-N2-(2-methoxy-4-((4-morpholinopiperidin-1-yl)sulfonyl)phenyl)-N4-methyl-7H-pyrrolo[2,3-d]pyrimidine-2,4-diamine] | 100% | 73% | 50% | 92% | 96% | 80% |
| CNc1nc(Nc2ccc(P3(=O)CCN(C4CCOCC4)CC3)cc2OC)nc2[nH]cc(Cl)c12 [Compound 77, 4-(4-((5-chloro-4-(methylamino)-7H-pyrrolo[2,3-d]pyrimidin-2-yl)amino)-3-methoxyphenyl)-1-(tetrahydro-2H-pyran-4-yl)-1,4-azaphosphinane 4-oxide] | 100% | 75% | 46% | 97% | 91% | 86% |
